Laboratory results: PubChem BioAssay (NCI)
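Protocol summary: plate cells (96-well), add compound at 5 concentrations, incubate 48 h, interpolate endpoints linearly. GI50 is the concentration that inhibits growth by half. TGI denotes the concentration required for complete inhibition of growth.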

Tests used:
Assay in all cases: NCI tumour cell line growth inhibition, 48 h
786-0 renal = test system: 786-0 renal
LOX IMVI melanoma = test system: LOX IMVI melanoma
SK-OV-3 ovarian = test system: SK-OV-3 ovarian
COLO 205 colon = test system: COLO 205 colon
UO-31 renal = test system: UO-31 renal
HT29 colon = test system: HT29 colon
SR leukemia = test system: SR leukemia
SK-MEL-2 melanoma = test system: SK-MEL-2 melanoma
IGROV1 ovarian = test system: IGROV1 ovarian
KM12 colon = test system: KM12 colon
NCI-H460 lung = test system: NCI-H460 lung
U251 CNS = test system: U251 CNS
UACC-62 melanoma = test system: UACC-62 melanoma
PC-3 prostate = test system: PC-3 prostate
RXF 393 renal = test system: RXF 393 renal
SW-620 colon = test system: SW-620 colon
BT-549 breast = test system: BT-549 breast
MDA-MB-435 = test system: MDA-MB-435
NCI/ADR-RES ovarian = test system: NCI/ADR-RES ovarian
HCC-2998 colon = test system: HCC-2998 colon
A498 renal = test system: A498 renal
SNB-19 CNS = test system: SNB-19 CNS
NCI-H23 lung = test system: NCI-H23 lung
HL-60(TB) leukemia = test system: HL-60(TB) leukemia
OVCAR-8 ovarian = test system: OVCAR-8 ovarian
SF-539 CNS = test system: SF-539 CNS
SN12C renal = test system: SN12C renal
NCI-H522 lung = test system: NCI-H522 lung
SK-MEL-28 melanoma = test system: SK-MEL-28 melanoma
OVCAR-5 ovarian = test system: OVCAR-5 ovarian
HCT-116 colon = test system: HCT-116 colon
HS 578T breast = test system: HS 578T breast
SK-MEL-5 melanoma = test system: SK-MEL-5 melanoma
A549 NSCLC = test system: A549 NSCLC
T-47D breast = test system: T-47D breast
MDA-MB-231 breast = test system: MDA-MB-231 breast
HCT-15 colon = test system: HCT-15 colon
MCF7 breast = test system: MCF7 breast
EKVX NSCLC = test system: EKVX NSCLC
UACC-257 melanoma = test system: UACC-257 melanoma
MOLT-4 leukemia = test system: MOLT-4 leukemia
SF-295 CNS = test system: SF-295 CNS
MALME-3M melanoma = test system: MALME-3M melanoma
TK-10 renal = test system: TK-10 renal
OVCAR-3 ovarian = test system: OVCAR-3 ovarian
HOP-92 NSCLC = test system: HOP-92 NSCLC
SF-268 CNS = test system: SF-268 CNS
RPMI-8226 leukemia = test system: RPMI-8226 leukemia
DU-145 prostate = test system: DU-145 prostate
K-562 leukemia = test system: K-562 leukemia
CAKI-1 renal = test system: CAKI-1 renal
SNB-75 CNS = test system: SNB-75 CNS
OVCAR-4 ovarian = test system: OVCAR-4 ovarian
HOP-62 NSCLC = test system: HOP-62 NSCLC
ACHN renal = test system: ACHN renal
NCI-H226 lung = test system: NCI-H226 lung

## COc1cc(OC)cc(-c2cncn2-c2ccc(-c3nc4cc(OC)c(OC)c(OC)c4s3)cc2)c1
786-0 renal
  GI50: 10.3 µM
  TGI: > 100 µM
LOX IMVI melanoma
  GI50: 6.93 µM
  TGI: > 100 µM
SK-OV-3 ovarian
  GI50: 49.9 µM
  TGI: > 100 µM
COLO 205 colon
  GI50: 3.85 µM
  TGI: > 100 µM
UO-31 renal
  GI50: 1.94 µM
  TGI: 58.9 µM
HT29 colon
  GI50: 8.33 µM
  TGI: > 100 µM
SR leukemia
  GI50: 7.14 µM
  TGI: > 100 µM
SK-MEL-2 melanoma
  GI50: 6.16 µM
  TGI: > 100 µM
IGROV1 ovarian
  GI50: 9.6 µM
  TGI: > 100 µM
KM12 colon
  GI50: 5.54 µM
  TGI: > 100 µM
NCI-H460 lung
  GI50: 7.46 µM
  TGI: > 100 µM
U251 CNS
  GI50: 5.44 µM
  TGI: > 100 µM
UACC-62 melanoma
  GI50: 13.8 µM
  TGI: > 100 µM
PC-3 prostate
  GI50: 3.17 µM
  TGI: > 100 µM
RXF 393 renal
  GI50: 30.2 µM
  TGI: > 100 µM
SW-620 colon
  GI50: 13.7 µM
  TGI: > 100 µM
BT-549 breast
  GI50: 6.71 µM
  TGI: > 100 µM
MDA-MB-435
  GI50: 6.07 µM
  TGI: > 100 µM
NCI/ADR-RES ovarian
  GI50: 11 µM
  TGI: > 100 µM
HCC-2998 colon
  GI50: > 100 µM
  TGI: > 100 µM
A498 renal
  GI50: > 100 µM
  TGI: > 100 µM
SNB-19 CNS
  GI50: 19.7 µM
  TGI: > 100 µM
NCI-H23 lung
  GI50: 9.56 µM
  TGI: > 100 µM
HL-60(TB) leukemia
  GI50: 2.43 µM
  TGI: > 100 µM
OVCAR-8 ovarian
  GI50: 13.4 µM
  TGI: > 100 µM
SF-539 CNS
  GI50: 22 µM
  TGI: > 100 µM
SN12C renal
  GI50: 31.9 µM
  TGI: > 100 µM
NCI-H522 lung
  GI50: 11.8 µM
  TGI: > 100 µM
SK-MEL-28 melanoma
  GI50: 31.6 µM
  TGI: > 100 µM
OVCAR-5 ovarian
  GI50: > 100 µM
  TGI: > 100 µM
HCT-116 colon
  GI50: 3.76 µM
  TGI: > 100 µM
HS 578T breast
  GI50: 20.9 µM
  TGI: > 100 µM
SK-MEL-5 melanoma
  GI50: 2.85 µM
  TGI: > 100 µM
A549 NSCLC
  GI50: 5.59 µM
  TGI: > 100 µM
T-47D breast
  GI50: 4.74 µM
  TGI: > 100 µM
MDA-MB-231 breast
  GI50: 19.2 µM
  TGI: > 100 µM
HCT-15 colon
  GI50: 5.72 µM
  TGI: > 100 µM
MCF7 breast
  GI50: 4.02 µM
  TGI: > 100 µM
EKVX NSCLC
  GI50: 1.87 µM
  TGI: > 100 µM
UACC-257 melanoma
  GI50: 20.5 µM
  TGI: > 100 µM
MOLT-4 leukemia
  GI50: 4.1 µM
  TGI: > 100 µM
SF-295 CNS
  GI50: 3.64 µM
  TGI: 52.9 µM
MALME-3M melanoma
  GI50: 9.59 µM
  TGI: 75.1 µM
TK-10 renal
  GI50: 26.4 µM
  TGI: > 100 µM
OVCAR-3 ovarian
  GI50: 6.07 µM
  TGI: 26.7 µM
HOP-92 NSCLC
  GI50: > 100 µM
  TGI: > 100 µM
SF-268 CNS
  GI50: 22.1 µM
  TGI: > 100 µM
RPMI-8226 leukemia
  GI50: 2.9 µM
  TGI: > 100 µM
DU-145 prostate
  GI50: 31.1 µM
  TGI: > 100 µM
K-562 leukemia
  GI50: 3.57 µM
  TGI: > 100 µM
CAKI-1 renal
  GI50: 3.79 µM
  TGI: > 100 µM
SNB-75 CNS
  GI50: 15 µM
  TGI: 42.7 µM
OVCAR-4 ovarian
  GI50: 6.67 µM
  TGI: > 100 µM
HOP-62 NSCLC
  GI50: 26.4 µM
  TGI: > 100 µM
ACHN renal
  GI50: 11.5 µM
  TGI: > 100 µM
NCI-H226 lung
  GI50: 21.7 µM
  TGI: > 100 µM
